The NIST ThermoML archive (doi:10.1021/acs.jced.7b00761)
Numbers after ± are expanded uncertainties.

Assay: wn = mass fraction of the nth substance listed
Conditions: 313 K, 101.3 kPa, Liquid, w1 = 0.3

CCNCCO [2-(ethylamino)ethanol] + CCN(CC)CCO
viscosity (Vibrating wire viscometry): 3.83 ± 0.21 mPa·s
mass density (petroleum hydrometers): 879 ± 3 kg/m3
